{"source": "paper PMC3531393", "about": "“In Vitro Evaluation of ESE-15-ol, an Estradiol Analogue with Nanomolar Antimitotic and Carbonic Anhydrase Inhibitory Activity” (PLoS ONE, 2012)", "molecular_target": "T1, carbonic anhydrase II (CAII) (Homo sapiens, UniProt P00918)", "T1 construct": "gene CA2; wild-type", "experiment": "[…] exchange between CO2 and water by membrane-inlet mass spectrometry; Henderson tight-binding analysis", "type": "biochemical"}
{"compound": "CCc1cc2c(cc1OS(N)(=O)=O)CC[C@@H]1C2CC[C@]2(C)[C@@H](O)C=C[C@@H]12", "note": "(stereo partly shown) [ESE-15-ol, 2-ethyl-3-O-sulphamoyl-estra-1,3,5(10),15-tetraen-17-ol]", "values": [{"measurement": "Ki", "result": "167 ± 19", "unit": "nM"}]}
